Source: ChEMBL document CHEMBL3603755 (J Med Chem, 2015)
The source made the active and inactive calls. No cut-off for these calls is given here.

How the values were obtained:
CAPAN-1 = test: Antitumor activity against human Capan1 cells xenografted in athymic nu/nu mouse assessed as tumor growth inhibition at 50 mg/kg administered for 5 days; assay type: functional, organism-based
[1] = Inhibition of human SULU1

Q: Which IC50 (MCF7) does the source give for `NC(=O)c1cccc2c1C(=O)N(C1CCN(C3CCC(F)(F)CC3)CC1)C2` here?
A: > 10 µM

Q: For `Cn1nnc2c(C(N)=O)ncn2c1=O`, which TGI (CAPAN-1) is on record?
A: inactive

Q: For `NC(=O)c1cc(F)cc2c1C(=O)N(C1CCN(C3CCC(F)(F)CC3)CC1)C2`, which IC50 [1] is on record?
A: > 10 µM
